Tested on: aminopeptidase M (Ap)
Experiment: Ap-catalyzed cleavage of H-Arg-AMC
Type: biochemical
Conditions: read-out: KM (Ap-catalyzed cleavage); substrate of aminopeptidase M

SMILES: Cc1cc(=O)oc2cc(NC(=O)[C@@H](N)CCCN=C(N)N)ccc12 [H-Arg-AMC]
- Km: 5 mM

— article PMC8154525 (Journal of the American Chemical Society, 2021)
